SMILES strings stand for the structures. Where “and” joins values, the source holds several entries; their conditions need not be identical. Equal values may be shown once. Inconclusive results and toxic doses are left out.

This test relates to BDF1 mice, intracerebral L1210 leukemia, survival T/C. The test can be described thus: NCI In Vivo Anticancer Drug Screen. Data for tumor model L1210 Leukemia (intracerebral) in B6D2F1 (BDF1) mice. The note with it: higher = longer survival. Put shortly:
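Readout is the T/C ratio: survival of compound-treated animals over that of vehicle-treated controls, in mice bearing transplantable tumour.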

Where [1] appears, read: endpoint: mean survival time, dose: 0.25 mg/kg/injection, schedule: Q01DX009 (ip), vehicle: saline.
The mark [2] stands for this setting: endpoint: mean survival time, dose: 2.0 mg/kg/injection, schedule: Q01DX009 (ip), vehicle: saline.

On to `O=NN(CCCl)C(=O)Nc1cccc(Cl)c1`, for which the T/C was 102 % of control (endpoint: mean survival time, dose: 44.0 mg/kg/injection, schedule: Q01DX001 (ip), vehicle: carboxymethylcellulose (CMC)); 100 % of control (endpoint: mean survival time, dose: 67.0 mg/kg/injection, schedule: Q01DX001 (ip), vehicle: carboxymethylcellulose (CMC)); 107 % of control (endpoint: mean survival time, dose: 77.0 mg/kg/injection, schedule: Q01DX001 (ip), vehicle: carboxymethylcellulose (CMC)); 98 % of control (endpoint: mean survival time, dose: 100.0 mg/kg/injection, schedule: Q01DX001 (ip), vehicle: carboxymethylcellulose (CMC)); 103 % of control (endpoint: mean survival time, dose: 117.0 mg/kg/injection, schedule: Q01DX001 (ip), vehicle: carboxymethylcellulose (CMC)); 108 % of control (endpoint: mean survival time, dose: 175.0 mg/kg/injection, schedule: Q01DX001 (ip), vehicle: carboxymethylcellulose (CMC)). For the same molecule, the T/C (endpoint: mean survival time, dose: 252.0 mg/kg/injection, schedule: Q01DX001 (ip), vehicle: carboxymethylcellulose (CMC)) is 103 % of control.

Regarding `CNC(=O)N(C)N=O`, the T/C reads like this: (endpoint: mean survival time, dose: 112.0 mg/kg/injection, schedule: Q01DX001 (ip), vehicle: carboxymethylcellulose (CMC)) 115 % of control; (endpoint: mean survival time, dose: 167.0 mg/kg/injection, schedule: Q01DX001 (ip), vehicle: carboxymethylcellulose (CMC)) 113 % of control; (endpoint: mean survival time, dose: 225.0 mg/kg/injection, schedule: Q01DX001 (ip), vehicle: carboxymethylcellulose (CMC)) 161 % of control; (endpoint: mean survival time, dose: 375.0 mg/kg/injection, schedule: Q01DX001 (ip), vehicle: carboxymethylcellulose (CMC)) 112 % of control.

In the case of `CCOC1=C(N2CC2)C(=O)C(OCC)=C(N2CC2)C1=O`, the T/C runs as follows: under setting [1], 96 % of control; (endpoint: mean survival time, dose: 0.5 mg/kg/injection, schedule: Q01DX009 (ip), vehicle: saline) 109 % of control and 93 % of control; (endpoint: mean survival time, dose: 1.0 mg/kg/injection, schedule: Q01DX009 (ip), vehicle: saline) 108 % of control and 98 % of control; under setting [2], 112 % of control; (endpoint: mean survival time, dose: 4.0 mg/kg/injection, schedule: Q01DX009 (ip), vehicle: saline) 94 % of control.

In the case of `Cc1cccc(C)c1NC(=O)N(CCCl)N=O`, the T/C was 113 % of control (endpoint: mean survival time, dose: 13.0 mg/kg/injection, schedule: Q01DX001 (ip), vehicle: carboxymethylcellulose (CMC)); 112 % of control (endpoint: mean survival time, dose: 20.0 mg/kg/injection, schedule: Q01DX001 (ip), vehicle: carboxymethylcellulose (CMC)); 119 % of control (endpoint: mean survival time, dose: 30.0 mg/kg/injection, schedule: Q01DX001 (ip), vehicle: carboxymethylcellulose (CMC)).

For `COc1ccc2c(Nc3ccc(NS(C)(=O)=O)cc3)c3ccccc3nc2c1`, the T/C was 106 % of control (endpoint: mean survival time, dose: 6.25 mg/kg/injection, schedule: Q01DX009 (ip), vehicle: saline); 104 % of control (endpoint: mean survival time, dose: 6.25 mg/kg/injection, schedule: Q01DX009 (sc), vehicle: saline); 102 % of control (endpoint: mean survival time, dose: 12.5 mg/kg/injection, schedule: Q01DX009 (ip), vehicle: saline); 100 % of control (endpoint: mean survival time, dose: 12.5 mg/kg/injection, schedule: Q01DX009 (sc), vehicle: saline); 106 % of control (endpoint: mean survival time, dose: 25.0 mg/kg/injection, schedule: Q01DX009 (sc), vehicle: saline); 88 % of control (endpoint: mean survival time, dose: 50.0 mg/kg/injection, schedule: Q01DX009 (sc), vehicle: saline).

With `COC12C(COC(N)=O)C3=C(C(=O)C(C)=C(N)C3=O)N1CC1C2N1C` (stereo not drawn), the T/C (endpoint: mean survival time, dose: 11.0 mg/kg/injection, schedule: Q01DX001 (ip), vehicle: carboxymethylcellulose (CMC)) was 92 % of control; the T/C (endpoint: mean survival time, dose: 17.0 mg/kg/injection, schedule: Q01DX001 (ip), vehicle: carboxymethylcellulose (CMC)) was 98 % of control; the T/C (endpoint: mean survival time, dose: 26.0 mg/kg/injection, schedule: Q01DX001 (ip), vehicle: carboxymethylcellulose (CMC)) was 97 % of control.

On to `CC(=O)NC1=C(N2CC2)C(=O)C(NC(C)=O)=C(N2CC2)C1=O`, for which the T/C was 105 % of control (endpoint: mean survival time, dose: 0.12 mg/kg/injection, schedule: Q01DX009 (ip), vehicle: saline with Tween-80); 97 % of control (endpoint: mean survival time, dose: 0.25 mg/kg/injection, schedule: Q01DX005 (ip), vehicle: saline with Tween-80); 105 % of control (endpoint: mean survival time, dose: 0.25 mg/kg/injection, schedule: Q01DX009 (ip), vehicle: saline with Tween-80); 110 % of control and 117 % of control under setting [1]; 105 % of control (endpoint: mean survival time, dose: 0.5 mg/kg/injection, schedule: Q01DX005 (ip), vehicle: saline with Tween-80); 108 % of control (endpoint: mean survival time, dose: 0.5 mg/kg/injection, schedule: Q01DX009 (ip), vehicle: saline with Tween-80). Moreover, the T/C is 113 % of control (endpoint: mean survival time, dose: 0.5 mg/kg/injection, schedule: Q01DX Z (ip), vehicle: carboxymethylcellulose (CMC)); 111 % of control (endpoint: mean survival time, dose: 1.0 mg/kg/injection, schedule: Q01DX005 (ip), vehicle: saline with Tween-80); 115 % of control (endpoint: mean survival time, dose: 2.0 mg/kg/injection, schedule: Q01DX005 (ip), vehicle: saline with Tween-80); 96 % of control and 98 % of control under setting [2]; 119 % of control (endpoint: mean survival time, dose: 2.0 mg/kg/injection, schedule: Q01DX Z (ip), vehicle: carboxymethylcellulose (CMC)).

`N#Cc1ccc(NC(=O)N(CCCl)N=O)cc1`: the T/C was 95 % of control (endpoint: mean survival time, dose: 9.37 mg/kg/injection, schedule: Q01DX001 (ip), vehicle: carboxymethylcellulose (CMC)); 91 % of control (endpoint: mean survival time, dose: 18.75 mg/kg/injection, schedule: Q01DX001 (ip), vehicle: carboxymethylcellulose (CMC)); 104 % of control (endpoint: mean survival time, dose: 37.5 mg/kg/injection, schedule: Q01DX001 (ip), vehicle: carboxymethylcellulose (CMC)); 102 % of control (endpoint: mean survival time, dose: 75.0 mg/kg/injection, schedule: Q01DX001 (ip), vehicle: carboxymethylcellulose (CMC)); 90 % of control (endpoint: mean survival time, dose: 150.0 mg/kg/injection, schedule: Q01DX001 (ip), vehicle: carboxymethylcellulose (CMC)).

As to `CCOC(=O)[C@H]1CCC[C@@H](NC(=O)N(CCCl)N=O)C1`, the T/C was 103 % of control (endpoint: mean survival time, dose: 14.0 mg/kg/injection, schedule: Q01DX001 (ip), vehicle: other); 104 % of control (endpoint: mean survival time, dose: 21.0 mg/kg/injection, schedule: Q01DX001 (ip), vehicle: other); 111 % of control (endpoint: mean survival time, dose: 31.0 mg/kg/injection, schedule: Q01DX001 (ip), vehicle: other); 109 % of control (endpoint: mean survival time, dose: 47.0 mg/kg/injection, schedule: Q01DX001 (ip), vehicle: other).

For `O=NN(CCF)C(=O)NCCF`, the T/C was 160 % of control (endpoint: mean survival time, dose: 3.5 mg/kg/injection, schedule: Q01DX001 (ip), vehicle: saline); 208 % of control (endpoint: mean survival time, dose: 5.0 mg/kg/injection, schedule: Q01DX001 (ip), vehicle: saline); 254 % of control (endpoint: mean survival time, dose: 7.0 mg/kg/injection, schedule: Q01DX001 (ip), vehicle: saline); 284 % of control (endpoint: mean survival time, dose: 8.0 mg/kg/injection, schedule: Q01DX001 (ip), vehicle: saline); 303 % of control (endpoint: mean survival time, dose: 14.0 mg/kg/injection, schedule: Q01DX001 (ip), vehicle: saline).

Regarding `NCCc1ccc(O)c(O)c1`, the T/C runs as follows: (endpoint: mean survival time, dose: 100.0 mg/kg/injection, schedule: Q04DX003 (ip), vehicle: saline) 102 % of control; (endpoint: mean survival time, dose: 200.0 mg/kg/injection, schedule: Q04DX003 (ip), vehicle: saline) 95 % of control; (endpoint: mean survival time, dose: 400.0 mg/kg/injection, schedule: Q04DX003 (ip), vehicle: saline) 98 % of control; (endpoint: mean survival time, dose: 800.0 mg/kg/injection, schedule: Q04DX003 (ip), vehicle: saline) 97 % of control.

Regarding `COS(C)(=O)=O`, the T/C runs as follows: (endpoint: median survival time, dose: 16.0 mg/kg/injection, schedule: Q01DX005 (ip), vehicle: saline) 104 % of control; (endpoint: median survival time, dose: 32.0 mg/kg/injection, schedule: Q01DX005 (ip), vehicle: saline) 99 % of control; (endpoint: median survival time, dose: 64.0 mg/kg/injection, schedule: Q01DX005 (ip), vehicle: saline) 99 % of control; (endpoint: median survival time, dose: 128.0 mg/kg/injection, schedule: Q01DX005 (ip), vehicle: saline) 101 % of control.

Turning to `O=NN(CCCl)C(=O)N[C@@H]1CCC[C@@H](O)C1`, the T/C reads like this: (endpoint: mean survival time, dose: 8.0 mg/kg/injection, schedule: Q01DX001 (ip), vehicle: saline with Tween-80) 118 % of control; (endpoint: mean survival time, dose: 20.0 mg/kg/injection, schedule: Q01DX001 (ip), vehicle: saline with Tween-80) 361 % of control; (endpoint: mean survival time, dose: 30.0 mg/kg/injection, schedule: Q01DX001 (ip), vehicle: saline with Tween-80) 413 % of control; (endpoint: mean survival time, dose: 44.0 mg/kg/injection, schedule: Q01DX001 (ip), vehicle: saline with Tween-80) 260 % of control.

Regarding `CN(C)N=Nc1ccc(C(N)=O)cc1`, the T/C is 98 % of control (endpoint: median survival time, dose: 10.0 mg/kg/injection, schedule: Q01DX009 (ip), vehicle: saline with Tween-80); 107 % of control (endpoint: median survival time, dose: 20.0 mg/kg/injection, schedule: Q01DX009 (ip), vehicle: saline with Tween-80); 109 % of control (endpoint: median survival time, dose: 40.0 mg/kg/injection, schedule: Q01DX009 (ip), vehicle: saline with Tween-80).
